For series [1], the system named is Nrf2. As to the kind of experiment: Nrf2 activation/inhibition in HaCaT-ARE-Luc cells. In kind it is cell-based.
The test system of series [2] is STHdhQ7/Q7 and STHdhQ111/Q111 striatal cells. As to the kind of experiment: 3-NP-induced cytotoxicity in striatal Q7 and Q111 cells (YOYO-1). In kind it is cell-based, mouse. The conditions noted are these: 6 h pre-treatment, 3-NP 10 mM 24 h; compound VII increasing concentrations, DFX 50 μM. The procedure: FIG. 8. Compound VII abrogates 3-NP toxicity in Q7 and […] striatal cells. Q7 and Q111 Striatal cells were pretreated with increasing concentrations of compound VII for 6 h and then exposed to 3-NP (10 mM) for an additional 24 h, after which YOYO-1 staining was used to investigate cell death. Cell death was determined using the IncuCyte HD software and the treatment with 3-NP alone in Q111 cells was considered as 100% of cell death.
To investigate whether HIF activation in striatal Q7 and Q111 cells is sufficient to protect striatal neurons (provide neuroprotection), the effect of compound VII on 3-NP induced death was examined. […]
STHdh^Q7/Q7 and STHdh^Q111/Q111 cells (10^4 cells/well in 96-well plates) were incubated with YOYO-1 (Life Technologies) and then treated with 3-NP (10 mM) and or DFX (50 μM) as a positive control for PHDs inhibition. […] The uptake of YOYO-1 by damaged cells correlates with the increase in YOYO-1 fluorescence. Treated cells are placed in an Incucyte FLR imaging system, and the YOYO-1 fluorescence is measured after 24 h of 3-NP treatment. Following the incubation period object counting analysis was performed using the Incucyte FLR software to calculate the total number of YOYO-1 fluorescence positive cells and total DNA containing objects (end point). […]

Series [3] deals with Nrf2. In words: Nrf2 activation/inhibition in HaCaT-ARE-Luc cells. The conditions noted are these: 6 h. In kind it is cell-based. The procedure: The HeLa-STAT3-luc cells stably transfected with the plasmid 4×M67 pTATA TK-Luc. Cells (20×10^3 cells/ml) were seeded in 96-well plates, treated with increasing concentrations of the compounds II to XIV, and of comparative compound CDDO-Me, for 15 min and then stimulated with IFN-γ 25 IU/ml. After 6 h the luciferase activity in the cell lysates was measured as indicated above. […] The HaCaT-ARE-Luc cell line contains the Nqo1 Antioxidant Response Element (ARE)-Luc reporter plasmid. ARE is activated by all members of the CNC family of factors (Nrf1, Nrf2, Nrf3 and p45 NF-E2). The cells were cultivated in 96-well plates at the concentration of 25×10^3 cells/well in a CO2 incubator at 37° C. For induction of Nrf2 activation the cells were treated with increasing concentrations of the compounds II to XV, and of comparative compound CDDO-Me, for 6 h. As a positive control the cells were treated with 0.02 mM of the antioxidant Tert-butyl-hydroquinone (TBHQ). Luciferase activity in the cell lysates was measured as indicated above and the EC50 calculated (Table III). The CHO-TGR5-CRE-Luc cells stably transfected with the pTGR5 and CRE-Luc. The CRE-responsive luciferase construct encodes the firefly luciferase reporter gene under the control of a minimal (m)CMV promoter and tandem repeats of the CRE transcriptional response element (TRE) and is useful to monitor cAMP signaling pathways activated by TGR5 agonists. Cells (1×10^4/well) were seeded in 96-well plates, treated with increasing concentrations of the compounds II to XV and CDDO-Me, for 6 h. As a positive control the cells were treated with 10 μM of LCA (lithocholic acid). Luciferase activity in the cell lysates was measured as indicated above and the EC50 calculated (Table III).

Data on one compound can be found in US10766855B2, “Hydroxamate triterpenoid derivatives” (VIVACELL BIOTECHNOLOGY ESPANA S.L., priority 2016, dated 2020).

Usually IC50 stands for the point on the concentration scale where inhibition reaches its midpoint. In general, EC50 refers to the concentration at which the effect is half-maximal.

In the series with Nrf2 [1], `C=C(C)[C@@H]1CC[C@]2(C(=O)NO)CC[C@]3(C)[C@H](CC[C@@H]4[C@@]5(C)CC[C@H](O)C(C)(C)[C@@H]5CC[C@]43C)[C@@H]12` [Compound VII, (3β) 3-Hydroxy-N-hydroxy-lup-20(29)-en-28-amide] displayed an IC50 above 50 µM. Moreover, in series [2], the “neuroprotection to 3-NP-induced cytotoxicity (cell death)” value is “clearly provided a significant level of neuroprotection”. The compound also displayed an EC50 in the series on Nrf2 [3] above 50 µM.
